The source of these data is patent US6340670B1, “Acetal benzylmaltosides as inhibitors of smooth muscle cell proliferation” (American Home Products Corporation, priority 1998, dated 2002).

In data set [1] the test system is Porcine Smooth Muscle Cell. In words: Effects of Compounds on Cell Proliferation Using 3H Thymidine Incorporation. The class given is cell-based. The note with it: Sus scrofa, serum/growth factor stimulated cells, 24-36 h incubation, read-out: Porcine Smooth Muscle Cell Antiproliferation IC50. In outline: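 Early-passage (3-7) sub-confluent smooth muscle cells, serum-starved 24-48 h, were stimulated with growth factor or serum and treated with compound (1 to 100 μM, from 50% ethanol stock) for 24-36 h at 37° C. Proliferation by ^3H-thymidine incorporation into TCA-insoluble material, triplicate, relative to maximally stimulated cells (100%); given as IC50 or % inhibition.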
(Uptake of a labelled nucleoside into DNA is a usual measure of proliferation.)

Each structure is given as a SMILES string. Where only a bound is given, the exact number is not on record here.

Consider `CC(=O)Nc1cc(COC2OC(COC(=O)C(c3ccccc3)c3ccccc3)C(OC3OC4COC(c5ccccc5)OC4C(OC(C)=O)C3OC(C)=O)C(OC(C)=O)C2OC(C)=O)ccc1Cl` (centres unmarked) [Example 51, Diphenyl-acetic acid 4,5-diacetoxy-6-(3-acetylamino-4-chloro-benzyloxy)-3-(7,8-diacetoxy-2-phenyl-hexahydro-pyrano[3,2-d][1,3]dioxin-6-yloxy)-tetrahydro-pyran-2-ylmethyl ester], for which the melting point (as a rule, the temperature of the solid-liquid transition) is > 99 °C (dec.). Also, in data set [1], the IC50 stood at 354 nM.

As to `COc1ccc(C(=O)OCC2OC(OCc3ccc(Cl)c(NC(C)=O)c3)C(OC(C)=O)C(OC(C)=O)C2OC2OC3COC(c4ccccc4)OC3C(OC(C)=O)C2OC(C)=O)cc1` (centres unmarked) [Example 35, 4-Methoxy-benzoic acid 4,5-diacetoxy-6-(3-acetylamino-4-chloro-benzyloxy)-3-(7,8-diacetoxy-2-phenyl-hexahydro-pyrano[3,2-d][1,3]dioxin-6-yloxy)-tetrahydro-pyran-2-ylmethyl ester], the melting point was > 110 °C (dec.). For the same molecule, the IC50 in data set [1] worked out at 851 nM.

`COc1ccc(CC(=O)OCC2OC(OCc3ccc(Cl)c(NC(C)=O)c3)C(O)C(O)C2OC2OC3COC(c4ccccc4)OC3C(O)C2O)cc1OC` (centres unmarked) [Example 52, (3,4-Dimethoxy-phenyl)-acetic acid 6-(3-acetylamino-4-chloro-benzyloxy)-3-(7,8-dihydroxy-2-phenyl-hexahydro-pyrano[3,2-d][1,3]dioxin-6-yloxy)-4,5-dihydroxy-tetrahydro-pyran-2-ylmethyl ester]: the melting point is > 116 °C (dec.). Moreover, the IC50 in data set [1] was found to be 48 nM.

Consider `CC(=O)Nc1cc(COC2OC(COC(=O)C(c3ccccc3)c3ccccc3)C(OC3OC4COC(c5ccccc5)OC4C(O)C3O)C(O)C2O)ccc1Cl` (centres unmarked) [Example 50, Diphenyl-acetic acid 6-(3-acetylamino-4-chloro-benzyloxy)-3-(7,8-dihydroxy-2-phenyl-hexahydro-pyrano[3,2-d][1,3]dioxin-6-yloxy)-4,5-dihydroxy-tetrahydro-pyran-2-ylmethyl ester], for which the melting point was > 106 °C (dec.). In addition, the IC50 in data set [1] worked out at 84 nM.

As for `CC(=O)Nc1cc(COC2OC(COC(=O)c3ccc(Cl)cc3)C(OC3OC4COC(c5ccccc5)OC4C(O)C3O)C(O)C2O)ccc1Cl` (centres unmarked) [Example 36, 4-Chloro-benzoic acid 6-(3-acetylamino-4-chloro-benzyloxy)-3-(7,8-dihydroxy-2-phenyl-hexahydro-pyrano[3,2-d][1,3]dioxin-6-yloxy)-4,5-dihydroxy-tetrahydro-pyran-2-ylmethyl ester], the melting point is > 113 °C (dec.). The IC50 in data set [1] was found to be 89 nM.

For `COc1ccc(C(=O)OCC2OC(OCc3ccc(Cl)c(NC(C)=O)c3)C(O)C(O)C2OC2OC3COC(c4ccccc4)OC3C(O)C2O)cc1` (centres unmarked) [Example 34, 4-Methoxy-benzoic acid 6-(3-acetylamino-4-chloro-benzyloxy)-3-(7,8-dihydroxy-2-phenyl-hexahydro-pyrano[3,2-d][1,3]dioxin-6-yloxy)-4,5-dihydroxy-tetrahydro-pyran-2-ylmethyl ester], the melting point is > 117 °C (dec.). The IC50 in data set [1] was 61 nM.

Molecule `CC(=O)Nc1cc(COC2OC(COC(=O)c3ccc(Cl)cc3)C(OC3OC4COC(c5ccccc5)OC4C(OC(C)=O)C3OC(C)=O)C(OC(C)=O)C2OC(C)=O)ccc1Cl` (centres unmarked) [Example 37, 4-Chloro-benzoic acid 4,5-diacetoxy-6-(3-acetylamino-4-chloro-benzyloxy)-3-(7,8-diacetoxy-2-phenyl-hexahydro-pyrano[3,2-d][1,3]dioxin-6-yloxy)-tetrahydro-pyran-2-ylmethyl ester] registered a melting point of 114 to 115 °C. The IC50 in data set [1] is 588 nM.

Consider `O=C(OCC1OC(OCc2ccc(Cl)c([N+](=O)[O-])c2)C(O)C(O)C1OC1OC2COC(c3ccccc3)OC2C(O)C1O)c1cccnc1` (centres unmarked) [Example 32, Nicotinic acid 6-(4-chloro-3-nitro-benzyloxy)-3-(7,8-dihydroxy-2-phenyl-hexahydro-pyrano[3,2-d][1,3]dioxin-6-yloxy)-4,5-dihydroxy-tetrahydro-pyran-2-ylmethyl ester], for which the melting point is > 105 °C (dec.). Moreover, the IC50 in data set [1] came out at 405 nM.

On to `CC(=O)Nc1cc(COC2OC(COC(=O)c3cccnc3)C(OC3OC4COC(c5ccccc5)OC4C(OC(C)=O)C3OC(C)=O)C(OC(C)=O)C2OC(C)=O)ccc1Cl` (centres unmarked) [Example 55, Nicotinic acid 4,5-diacetoxy-6-(3-acetylamino-4-chloro-benzyloxy)-3-(7,8-diacetoxy-2-phenyl-hexahydro-pyrano[3,2-d][1,3]dioxin-6-yloxy)-tetrahydro-pyran-2-ylmethyl ester], for which the melting point is > 112 °C (dec.). Moreover, the IC50 in data set [1] is 304 nM.

Regarding `COc1ccc(CC(=O)OCC2OC(OCc3ccc(Cl)c(NC(C)=O)c3)C(OC(C)=O)C(OC(C)=O)C2OC2OC3COC(c4ccccc4)OC3C(OC(C)=O)C2OC(C)=O)cc1OC` (centres unmarked) [Example 53, (3,4-Dimethoxy-phenyl)-acetic acid 4,5-diacetoxy-6-(3-acetylamino-4-chloro-benzyloxy)-3-(7,8-diacetoxy-2-phenyl-hexahydro-pyrano[3,2-d][1,3]dioxin-6-yloxy)-tetrahydro-pyran-2-ylmethyl ester], the melting point is > 98 °C (dec.). In addition, the IC50 in data set [1] was 266 nM.
